Measured values from PubChem BioAssay (NCI).
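Interpolation was linear, between the two tested concentrations surrounding the appropriate level; five concentrations were tested over 48 hours in 96-well plates. The concentration for full growth arrest is given as TGI.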

How the values were obtained:
Test in all cases: NCI anticancer screen, dose series, 48 h
[1] = system: 786-0 renal
[2] = system: A498 renal
[3] = system: A549 NSCLC
[4] = system: ACHN renal
[5] = system: CAKI-1 renal
[6] = system: CCRF-CEM leukemia
[7] = system: COLO 205 colon
[8] = system: DLD-1 colon
[9] = system: DMS 114 small cell lung
[10] = system: DMS 273 small cell lung
[11] = system: EKVX NSCLC
[12] = system: HCC-2998 colon
[13] = system: HCT-116 colon
[14] = system: HCT-15 colon
[15] = system: HL-60(TB) leukemia
[16] = system: HOP-18 NSCLC
[17] = system: HOP-62 NSCLC
[18] = system: HOP-92 NSCLC
[19] = system: HT29 colon
[20] = system: IGROV1 ovarian
[21] = system: K-562 leukemia
[22] = system: KM12 colon
[23] = system: KM20L2 colon
[24] = system: LOX IMVI melanoma
[25] = system: LXFL 529 NSCLC
[26] = system: M14 melanoma
[27] = system: M19-MEL melanoma
[28] = system: MALME-3M melanoma
[29] = system: MOLT-4 leukemia
[30] = system: NCI-H23 lung
[31] = system: NCI-H460 lung
[32] = system: OVCAR-3 ovarian
[33] = system: OVCAR-4 ovarian
[34] = system: OVCAR-5 ovarian
[35] = system: OVCAR-8 ovarian
[36] = system: RPMI-8226 leukemia
[37] = system: RXF-631 renal
[38] = system: SF-268 CNS
[39] = system: SF-295 CNS
[40] = system: SF-539 CNS
[41] = system: SK-MEL-2 melanoma
[42] = system: SK-MEL-28 melanoma
[43] = system: SK-MEL-5 melanoma
[44] = system: SK-OV-3 ovarian
[45] = system: SNB-75 CNS
[46] = system: SNB-78 CNS
[47] = system: SW-620 colon
[48] = system: TK-10 renal
[49] = system: U251 CNS
[50] = system: UACC-257 melanoma
[51] = system: UACC-62 melanoma
[52] = system: XF 498 CNS

Measured: TGI

COc1ccc2c(c1)C(CCN)C(=O)N2 (configuration not stated)
> 100 µM: all assays above
